{"source": "patent EP1033998B1", "about": "“SUPPRESSING BETA-AMYLOID-RELATED CHANGES IN ALZHEIMER'S DISEASE” (Neuralab, Ltd., priority 1997, dated 2005)", "key": {"[1]": {"tested_on": "PDAPP mice", "assay": "Immunoreactivity tests on brain sections (immunological markers and cytokines)", "assay_type": "in vivo", "settings": "mice treated mucosally; Figures 9A, 9B", "procedure": "(§1) 4 to 5 month old PDAPP mice were fed or nasally administered either [1-40]β-amyloid peptide or a control protein (myelin basic protein or ovalbumin in amounts of 50 or 500 µg per feeding). Administration was carried out three (nasal) or five times consecutively (oral) during an initial one week period, and then on a weekly basis until the animals were between 11 and 12 months old. The orally administered β-amyloid peptide was in a dosage of 10 or 100 µg, and the nasally administered β-amyloid was in a dosage of 5 or 25 µg.\nThe feeding and nasal administration of β-amyloid peptide, or ovalbumin to PDAPP mice was conducted among the following mice groups: Group 0: Non treated; mice nos. 0.1-0.7 Group 1: fed [1-40]β-amyloid peptide 100µg/feeding; mice nos. 1.1-1.9 Group 2: fed [1-40]β-amyloid peptide 10µg/feeding; mice nos. 2.1-2.9 Group 3: nasal [1-40]β-amyloid peptide 25µg/treatment; mice nos. 3.1-3.9 Group 4: nasal [1-40]β-amyloid peptide 5µg/treatment; mice nos. 4.1-4.7 Group 5: fed ovalbumin 500µg/feeding; mice nos. 5.1-5.6 Group 6: nasal ovalbumin 50µg/treatment; mice nos. 6.1-6.6 Group 7: fed MBP 500µg/feeding; mice nos. 7.1-7.5 Group 8: nasal MBP 50µg/treatment; mice nos. 8.1-8.6\nAt the end of the treatment period, the mice were sacrificed and brains, popliteal lymph nodes and spleens removed. […]"}, "[2]": {"tested_on": "PDAPP mice", "assay": "β-amyloid plaque load in brain sections (visual and computer assisted image analysis)", "assay_type": "in vivo", "text": "Transgenic PDAPP mice were acquired from Athena Neurosciences, Inc. (South San Francisco, CA). These mice express a human gene encoding a mutant form of β-amyloid precursor protein and progressively develop β-amyloid deposits in the hippocampus and cerebral cortex in a manner similar to that seen in Alzheimer's disease. The β-amyloid deposits in the transgenic mice become associated with activated microglial cells, reactive astrocytes and other features of the periplaque inflammatory response seen in Alzheimer's disease brains.\nas §1, with “µg. […]” for “µg.”\nSpecificially, results are shown for both visual and computer assisted image analysis of β-amyloid plaque load for the 8 experimental groups of mice that were tested; values are shown for each mouse in the relevant group. […] The visual assessment of plaque load was scored according to the table shown at the bottom of Figure 9A."}, "[3]": {"tested_on": "β-amyloid", "assay": "Immunoassay of mouse antisera for IgG subtypes against β-amyloid (Down syndrome brain sections as capture antigen)", "assay_type": "in vivo, PDAPP mice", "settings": "nasally treated with 25 µg; over controls; Figure 11", "procedure": "In these experiments, the antisera were tested in an immunoassay for the presence of IgG subtypes against β-amyloid. In the immunoassay, Down syndrome brain sections, which contain large amounts of β-amyloid, were employed as \"capture\" antigen. IgG in the mice antisera were bound to the sections, and the presence of IgG subtypes in the bound antibodies distinguished by secondary (2°) antibodies specific for each subtype. […] These antibodies are associated with Th2 type cellular immune responses."}, "[4]": {"tested_on": "popliteal lymph node and spleen T-cells", "assay": "Cytokine production assay (capture ELISA) after feeding or nasal administration and immunization", "assay_type": "in vivo, C3H/EB mice", "settings": "then immunized", "procedure": "C3H/eb mice were fed [1-40]Aβ 500 µg/feeding, 50 µg/feeding, or 5 µg/feeding every day for 5 days (200 µl/feeding). Nasal administration was given at 50 µg/application or 5 µg/application every day for 3 days (10 µl/application).\nThis experiment also served as a preliminary dose response experiment for this mouse strain.\nFigure 5A illustrates the result in secretion of the Th1 immunostimulatory (proinflammatory) cytokine IL-2 in popliteal lymph nodes from C3H/EB mice at various feeding levels (5, 50 and 500 µg/feeding for 5 days) and when nasally administered (5 or 50 µg/application for 3 days) [1-40]β-amyloid peptide prior to immunization (2 days after the last feeding or nasal application) with 100 µg [1-40]β-amyloid peptide in 50 µg CFA. […] Based on the results for Fig. 5A, and Figs. 5B, 6A, 6B, and 7A, 7B, it was decided to use 25 µg nasally and 75 µg orally in subsequent experiments."}, "[5]": {"tested_on": "popliteal lymph node T-cells and spleen cells", "assay": "Proliferation assay in mouse strains immunized but not fed the peptide", "assay_type": "in vivo, SJL/J, DBA/1, C57BL/6, BALB/C and C3H/EB mice", "settings": "one in vitro stimulation, Figures 2A, 2B", "procedure": "(§2) Mice were immunized with 100 µg of [1-40]β-amyloid peptide ([1-40]Aβ) emulsified in 50 µg CFA (Difco Laboratories, Inc.). On day 10, popliteal lymph nodes and spleens were removed and for T-cell proliferation and cytokine production.\nFigure 2A compares proliferation of popliteal lymph node T-cells from SJL/J, DBA/I, C57BL/6, BALB/C and C3H/EB mice immunized with [1-40]β-amyloid peptide. Figure 2B compares proliferation in spleen cells from SJL/J, DBA/1, C57BL/6, BALB/C and C3H/EB mice immunized with [1-40]β-amyloid peptide. […] It should be noted that T-cells for the experiment shown in this Example are stimulated with antigen only once in vitro prior to the proliferation assay. Additional stimulations would enlist response from the apparent non-responder strain C57BL/6 and (DBA/1). This experiment provides information about the responding ability of cells from various strains and was useful in designing the subsequent experiments described below. It is believed to be advantageous to select \"good responders\" (such as C3H/EB) but not \"too high responders\" (SJL/J was thus not chosen)."}, "[6]": {"tested_on": "popliteal lymph node T-cells", "assay": "Proliferation assay ([3H]thymidine incorporation) of popliteal lymph node cells after feeding or nasal treatment and immunization", "assay_type": "in vivo, SWISSXBDF1 mice", "settings": "fed or nasally treated; ten days after foot pad immunization with 100 µg peptide in 50 µg CFA; Figure 1B", "procedure": "(§3) Female BALB/C (6-8 weeks of age); DBA/2; C3H/eb; C47b1/6; SWISSXBDF1 or SHL/J mice were used. The animals were maintained in a temperature- and light-controlled environment with free access to feed and water. Each experimental group contained no fewer than 5 mice.\nas §2"}, "[7]": {"tested_on": "PLN", "settings": "mice of certain strains (e.g., C3H/EB and DBA/1) mucosally tolerized"}, "[8]": {"tested_on": "popliteal lymph node and spleen T-cells", "assay": "Cytokine profiles (capture ELISA) after feeding or nasal administration and immunization of non-transgenic littermates", "assay_type": "in vivo, SWISSXXB6D2F1 mice", "settings": "then immunized, ten days later", "protocol": "Levels of IL-4, IL-2, IL-10, TGF-β and IFNγ in supernatants were determined by capture ELISA as described. […] Briefly, supernatants were added to microtiter (Maxisorp) plates, previously coated with rat anti-mouse IL-4, IL-2, IL-10, TGF-β or IFN-γ monoclonal antibodies (capture antibodies, Pharmingen; 1 µg/ml at 4°C over night) and blocked with BSA-diluent/blocking solution (KPL). Plates were washed, and standards and samples were added for another overnight incubation at 4°C. Bound cytokine was detected by the addition of ABTS (Kirkegaard & Perry). Wells were washed, and cytokine levels determined using biotinylated rat anti-mouse IL-4, IL-2, IL-10, TGF-β or IFN-γ monoclonal antibodies (detecting antibodies, Pharmingen) and a peroxide visualization system (peroxidase-labeled streptavidin). IL-2 and IL-4 were analyzed after 24 hours of cell incubation with antigen, IL-10 and IFN-γ after 40 hours and TGF-β after 72 hours. Cytokine levels were calculated from a log-log plot of absorbance vs. concentration of recombinant cytokines (Pharmingen), and results are expressed in pg/mL (for IL-4, IL-2, IL-10, TGF-β and IFN-γ). Threshold sensitivities of ELISA assays were 5 pg/mL, 10 pg/mL and 2.5 ng/mL for IL-4, IL-2 and IFN-γ, respectively.\nFeeding and Immunization: SWISSXXB6D2F1 mice were fed with [1-40]Aβ 75 µg/feeding x 5 or nasally administered with 25 µg/application x 3, and 2 days after the last treatment, were immunized with 100 µg [1-40]Aβ in 50 µg CFA. Ten days later, the popliteal lymph node and spleen T-cells were checked for cytokine production as described above."}, "[9]": {"tested_on": "PLN", "settings": "mucosally administered, immunized 10 days prior to sacrifice", "procedure": "Levels of IL-4, IL-2, IL-10, TGF-β and IFNγ in supernatants were determined by capture ELISA as described. Friedman, A., et al., Proc. Nat'l Acad. Sci. U.S.A., 91, 6688 (1994); Yang, X., et al., J. Immunol., 150, 4354 (1993). Briefly, supernatants were added to microtiter (Maxisorp) plates, previously coated with rat anti-mouse IL-4, IL-2, IL-10, TGF-β or IFN-γ monoclonal antibodies (capture antibodies, Pharmingen; 1 µg/ml at 4°C over night) and blocked with BSA-diluent/blocking solution (KPL). Plates were washed, and standards and samples were added for another overnight incubation at 4°C. Bound cytokine was detected by the addition of ABTS (Kirkegaard & Perry). Wells were washed, and cytokine levels determined using biotinylated rat anti-mouse IL-4, IL-2, IL-10, TGF-β or IFN-γ monoclonal antibodies (detecting antibodies, Pharmingen) and a peroxide visualization system (peroxidase-labeled streptavidin). IL-2 and IL-4 were analyzed after 24 hours of cell incubation with antigen, IL-10 and IFN-γ after 40 hours and TGF-β after 72 hours. Cytokine levels were calculated from a log-log plot of absorbance vs. concentration of recombinant cytokines (Pharmingen), and results are expressed in pg/mL (for IL-4, IL-2, IL-10, TGF-β and IFN-γ). Threshold sensitivities of ELISA assays were 5 pg/mL, 10 pg/mL and 2.5 ng/mL for IL-4, IL-2 and IFN-γ, respectively.\nTwo mice from each of groups 1, 5, and 8 were immunized with β-amyloid peptide 10 days prior to sacrifice."}, "[10]": {"tested_on": "spleen T-cells", "assay": "Proliferation assay ([3H]thymidine incorporation) of spleen cells after feeding or nasal treatment and immunization", "assay_type": "in vivo, SWISSXBDF1 mice", "settings": "fed (75 µg/feeding x 5) or nasally treated (25 µg x 3); immunized two days after last treatment with 100 µg peptide in 50 µg CFA; Figure 1A", "procedure": "as §3, §2"}, "[11]": {"tested_on": "subjects with early-stage dementia", "settings": "44 subjects with early-stage dementia; cited from earlier work"}, "[12]": {"tested_on": "community-dwelling subjects with mild or moderate dementia", "settings": "cited from earlier work"}, "[13]": {"settings": "at least pursuant to nasal administration of 25 µg"}, "[14]": {"settings": "fed 75 µg/feeding x 5 or nasal 25 µg/application x 3"}}}
{"molecule": "[1-40]β-amyloid peptide: β-amyloid peptide fragment [1-40], sequence derived from β-amyloid precursor protein; antigen given orally or nasally", "values": [{"measurement": "microglial activation in the brain", "setting": "[1]", "value": "decreased microglial activation"}, {"measurement": "production of inflammatory cytokines in the brain", "setting": "[1]", "value": "decreased production"}, {"measurement": "difference in β-amyloid deposits versus controls (1-tailed Mann-Whitney U-test)", "setting": "[2]; nasally administered 25 µg", "value": "statistically significant"}, {"measurement": "development of β-amyloid deposits", "setting": "[2]; oral 10 or 100 µg or nasal 5 or 25 µg, weekly from 4-5 to 11-12 months of age, versus control groups", "value": "fewer β-amyloid deposits"}, {"measurement": "IgG1 class antibodies against β-amyloid in antisera", "setting": "[3]", "value": "increase"}, {"measurement": "secretion of IL-2 in spleen cells", "setting": "[4]; at 5 µg fed and 50 µg nasal, Fig. 5B", "value": "Suppression of IL-2 secretion was clear"}, {"measurement": "secretion of IL-10", "setting": "[4]; fed 5, 50 or 500 µg/feeding for 5 days or nasal 5 or 50 µg/application for 3 days, Figures 4A, 4B", "value": "significant enhancement of IL-10 in at least one of spleen and PLN cells treated with at least one dose"}, {"measurement": "secretion of TGF-β in spleen cells", "setting": "[4]; fed 5 and 50 µg/feeding for 5 days or nasal 50 µg/application for 3 days, Figure 6B", "value": "enhanced secretion"}, {"measurement": "secretion of IL-2 in popliteal lymph nodes", "setting": "[4]; nasal administration (5 or 50 µg/application for 3 days), Fig. 5A", "value": "Suppression of IL-2 secretion was clear"}, {"measurement": "proliferative response to the peptide after immunization", "setting": "[5]", "value": "many strains of normal mice (not transgenic mice, not Alzheimer's model) respond"}, {"measurement": "proliferation in popliteal lymph nodes", "setting": "[6]", "value": "suppression of proliferation"}, {"measurement": "PLN proliferation", "setting": "[7]", "value": "decreased PLN proliferation"}, {"measurement": "in vitro IFN-γ response to Aβ stimulation", "setting": "[8]; [13]", "value": "reduced in vitro response"}, {"measurement": "in vitro IL-2 response to Aβ stimulation", "setting": "[8]; [13]", "value": "reduced in vitro response"}, {"measurement": "in vitro IL-10 response to Aβ stimulation", "setting": "[8]; [14]", "value": "increased response"}, {"measurement": "in vitro TGF-β response to Aβ stimulation", "setting": "[8]; [14]", "value": "increased response"}, {"measurement": "production of IL-2", "setting": "[9]; Figure 12", "value": "decreased production"}, {"measurement": "production of IFN-γ", "setting": "[9]; Figure 14", "value": "decreased production"}, {"measurement": "production of IL-6", "setting": "[9]; Figure 15", "value": "decreased production"}, {"measurement": "production of IL-10", "setting": "[9]; Figure 16", "value": "increased production"}, {"measurement": "production of TGF-β", "setting": "[9]; Figure 17", "value": "increased production"}, {"measurement": "proliferation of spleen cells", "setting": "[10]", "value": "significant suppression of proliferation"}]}
{"molecule": "COc1ccc2c(c1)c(CC(=O)O)c(C)n2C(=O)c1ccc(Cl)cc1", "note": "[indomethacin]", "values": [{"measurement": "mental function during the study", "setting": "[11]", "value": "did not deteriorate"}]}
{"molecule": "Cl.Nc1c2c(nc3ccccc13)CCCC2.O", "note": "[TACRINE, 1,2,3,4-tetrahydro-9-acridinamine monohydrochloride monohydrate]", "values": [{"measurement": "efficacy for treating Alzheimer's disease", "setting": "[12]; community-dwelling subjects with mild or moderate dementia", "value": "only partially effective"}, {"measurement": "serum aminotransferase levels", "setting": "[12]; safety concern, may indicate hepatocellular injury", "value": "elevation"}]}
